Measurements: patent US12729180B2, “Functionalized Maleimides and Isomaleimides and a process for preparation thereof” (COUNCIL OF SCIENTIFIC AND INDUSTRIAL RESEARCH, priority 2021, dated 2026)

Test system: MCF-7 breast cancer cell line
Assay: MTT assay against breast cancer cell line
Format: cell-based
Settings: Homo sapiens, MCF7, 72 hours after treatment; for cytotoxicity at 100 µM / viability at 100 µM: MCF-7, 100 uM; for cytotoxicity at 100 µM / cytotoxicity at 300 µM: read-out: % Dead cells; for viability at 100 µM / viability at 300 µM: read-out: % Live cells; for cytotoxicity at 300 µM / viability at 300 µM: MCF-7, 300 uM
Experimental: In another embodiment, the functionalized maleimides and isomaleimides of Formula (I) are useful as antimicrobials and anti-cancer agents. MTT assay of compounds of Formula (I) is summarized below in Table-1 The compounds were tested against breast cancer cell line at 100 and 300 μM concentrations and % live and % dead cells were determined.
The compounds were evaluated for anti-cancer activity by testing them against breast cancer cell lines obtained from NCCS, Pune, India. The MITT assay was carried out. The assay procedure involves reconstitution of the pre-measured MTT reagent in the assay buffer, followed by its addition to the culture system. After dissolving the formazan crystals in the solubilization solution, results can be directly read on a suitable reader.
• 1. Harvest the cells; • 2. Seed 10,000 cells in 100 μl DMEM media/well in 96-well microtiter plate in triplicate; • 3. Incubate the cells at 37° C., 5% CO2 for 24 hours to achieve morphology; • 4. Treat the cells with varying concentrations of drugs; • 5. Controls included untreated cells and cells treated with 100 uM Doxorubicin; • 6. Incubate the cells for 72 hours after treatment; • 7. Add 10 μl of MTT to each well, including controls; • 8. Wrap the plate with aluminium foil to avoid exposure to light; • 9. Return the plate to the incubator for 2 hours; • 10. Observe the cells under an inverted microscope for presence of intracellular needle-shaped, dark purple coloured precipitate; • 11. When the purple precipitate is clearly visible under the microscope, add 100 μl of solubilization solution to the wells; • 12. Stir gently on a gyratory shaker to enhance dissolution of the crystals; • 13. Read the absorbance on a spectrophotometer or an ELISA reader at 570 nm with a reference wavelength higher than 650 nm.

| Structure (SMILES) | cytotoxicity at 100 µM [%] | viability at 100 µM [%] | cytotoxicity at 300 µM [%] | viability at 300 µM [%] |
| --- | --- | --- | --- | --- |
| CCOC(=O)CC1=C(Cc2cc(OC)ccc2OC)C(=O)O/C1=N\C1CCC(C)CC1 (stereo not drawn) [Compound 3d, Ethyl (Z)-2-(4-(2,5-dimethoxybenzyl)-2-((4-methylcyclohexyl)imino)-5-oxo-2,5-dihydrofuran-3-yl)acetate] | 32.9 | 67.1 | 54.4 | 45.6 |
| CCOC(=O)CC1=C(Cc2ccc3ccccc3c2)C(=O)O/C1=N\C1CCC(C)CC1 (stereo not drawn) [Compound 3j, Ethyl (Z)-2-(2-((4-methylcyclohexyl)imino)-4-(naphthalen-2-ylmethyl)-5-oxo-2,5-dihydrofuran-3-yl)acetate] | 51.7 | 48.3 | 59.7 | 40.3 |
| CCOC(=O)CC1=C(Cc2cccc(Oc3ccccc3)c2)C(=O)O/C1=N\C1CCC(C)CC1 (stereo not drawn) [Compound 3c, Ethyl (Z)-2-(2-((4-methylcyclohexyl)imino)-5-oxo-4-(3-phenoxybenzyl)-2,5-dihydrofuran-3-yl) acetate] | 32.9 | 67.1 | 34.8 | 65.2 |
| CCOC(=O)CC1=C(Cc2ccc(F)c(F)c2)C(=O)O/C1=N\C1CCC(C)CC1 (stereo not drawn) [Compound 3g, Ethyl (Z)-2-(4-(3,4-difluorobenzyl)-2-((4-methylcyclohexyl)imino)-5-oxo-2,5-dihydrofuran-3-yl)acetate] | 26.4 | 73.6 | 47.2 | 52.8 |
| CCOC(=O)CC1=C(Cc2ccccc2F)C(=O)O/C1=N\C1CCC(C)CC1 (stereo not drawn) [Compound 3f, Ethyl (Z)-2-(4-(2-fluorobenzyl)-2-((4-methylcyclohexyl)imino)-5-oxo-2,5-dihydrofuran-3-yl)acetate] | 26.6 | 73.4 | 49.6 | 50.4 |
| CCOC(=O)CC1=C(Cc2ccc(Cl)cc2)C(=O)O/C1=N\C1CCC(C)CC1 (stereo not drawn) [Compound 3e, Ethyl (Z)-2-(4-(4-chlorobenzyl)-2-((4-methylcyclohexyl)imino)-5-oxo-2,5-dihydrofuran-3-yl)acetate] | 45.3 | 54.7 | 53.7 | 46.3 |
| CCOC(=O)CC1=C(Cc2cccc(C(F)(F)F)c2)C(=O)O/C1=N\C1CCC(C)CC1 (stereo not drawn) [Compound 3h, Ethyl (Z)-2-(2-((4-methylcyclohexyl)imino)-5-oxo-4-(3-(trifluoromethyl)benzyl)-2,5-dihydrofuran-3-yl)acetate] | 49.1 | 50.9 | 60.9 | 39.1 |
| CCOC(=O)CC1=C(C(c2ccccc2)c2ccccc2)C(=O)O/C1=N\C1CCC(C)CC1 (stereo not drawn) [Compound 3p, Ethyl (Z)-2-(4-benzhydryl-2-((4-methylcyclohexyl)imino)-5-oxo-2,5-dihydrofuran-3-yl)acetate] | 43.5 | 56.5 | 51.1 | 48.9 |
| CCOC(=O)CC1=C(Cc2c3ccccc3cc3ccccc23)C(=O)O/C1=N\C1CCC(C)CC1 (stereo not drawn) [Compound 3k, Ethyl (Z)-2-(4-(anthracen-9-ylmethyl)-2-((4-methylcyclohexyl)imino)-5-oxo-2,5-dihydrofuran-3-yl)acetate] | 27.4 | 72.5 | 33 | 67 |
